PMC12655529, “Serendipitous Hinge Modulation Hypothetically Reprograms Caerin 1.1-LC Antibacterial Mechanism and Gram-Negative Selectivity” (Pharmaceutics, 2025)
Ends that are not written are not given here.

Tests used:
[1] = tested on: Enterococcus faecalis NCTC 12697; format: cell-based; conditions: NCTC 12697
Procedure: (§1) The antimicrobial activities of the peptides were evaluated by determining their minimal inhibitory concentration (MIC) and minimal bactericidal concentration (MBC) values following reported protocols [20]. The tested microorganisms included seven Gram-negative bacterial strains (Escherichia coli ATCC 8739, E. coli ATCC-BAA 2340, E. coli NCTC 13846, Klebsiella pneumoniae ATCC 43816, K. pneumoniae ATCC BAA-2342, Pseudomonas aeruginosa ATCC 9027, Acinetobacter baumannii ATCC BAA-747), three Gram-positive bacterial strains (Staphylococcus aureus ATCC 6538, Enterococcus faecalis NCTC 12697, MRSA NCTC 12493, and the fungal strain Candida albicans ATCC 10231. For the assay, each bacterial strain was cultured overnight at 37 °C in 100 mL of medium in a flask. The cultures were then subcultured to reach the logarithmic growth phase and diluted to 5 × 10^5 CFU/mL. Peptide samples were serially diluted two-fold in microplates, with concentrations ranging from 128 μM to 1 μM. The diluted bacterial suspensions were mixed with the peptide solutions and incubated overnight at 37 °C. The MIC values were determined by measuring the absorbance of each well using a Synergy HT plate reader (Agilent, Cheshire, UK). For MBC determination, aliquots from wells showing no visible growth were inoculated onto agar plates to assess bacterial viability. Each experiment was repeated independently three times and conducted in three independent replicates.

horse red blood cells = assay: Haemolysis assay; format: cell-based; conditions: concentration inducing 10% haemolysis of horse erythrocytes; 4% (v/v) in PBS, 2 h, 37 °C, absorbance 570 nm; no haemolysis at maximum testing concentration (128 μM) recorded as 256 μM
Procedure: The peptide cytotoxicity against mammalian erythrocytes was evaluated by haemolysis assay on horse red blood cells (E&O Laboratories Ltd., Falkirk, UK). Fresh horse blood was washed three times with PBS and resuspended to a final concentration of 4% (v/v) in PBS. The diluted blood suspension was then mixed with peptide solutions at varying concentrations and incubated for 2 h at 37 °C. Red blood cell suspensions treated with 0.1% Triton X-100 and PBS were used as controls. The Triton X-100-treated suspension was the positive control (for 100% haemolysis), while the PBS-treated suspension was the blank control. Following incubation, the mixtures were centrifuged at 1000× g for 10 min to separate erythrocytes from the supernatant. The absorbance of the supernatants was detected at 570 nm. The percentage haemolysis was calculated by following the equationPercentage Haemolysis = (AbsSample − AbsBlank)/(AbsPositive − AbsBlank) × 100%

[2] = tested on: Pseudomonas aeruginosa ATCC 9027; format: cell-based
Procedure: as §1

[3] = tested on: K. pneumoniae ATCC BAA-2342; format: cell-based, Klebsiella pneumoniae
Procedure: as §1

[4] = tested on: Staphylococcus aureus ATCC 6538; format: cell-based; conditions: ATCC 6538
Procedure: as §1

[5] = tested on: Klebsiella pneumoniae ATCC 43816; format: cell-based; conditions: ATCC 43816
Procedure: as §1

E. coli (ATCC-BAA 2340) = format: cell-based, Escherichia coli; conditions: ATCC-BAA 2340
Procedure: The peptide sensitivity was determined in different salt- and serum-containing environments. Bacterial strains were prepared following the MIC detection protocol described previously. To evaluate peptide sensitivity under physiological conditions, various concentrations of salt ions (150 mM NaCl, 4.5 mM KCl, 2 mM CaCl2, 1 mM MgCl2, 8 µM ZnCl2, 6 µM NH4Cl, or 4 µM FeCl3) and serum (10% FBS) were prepared in McCartney bottles prior to the addition of bacterial suspensions. The subcultured bacterial suspensions were then introduced to these modified media conditions. For MIC determination, the treated bacterial suspensions were diluted and dispensed into 96-well plates containing peptide solutions at graded concentrations. This assay allowed for the detection of potential alterations in MIC values, serving as an indicator of peptide sensitivity under different physiological conditions. All experiments were independently repeated three times, each with three replicates.

Gram-positive bacteria = assay: Geometric mean MIC and therapeutic index, Gram-positive; format: cell-based; conditions: geometric mean of MICs
MRSA NCTC 12493 = format: cell-based, Staphylococcus aureus
E. coli ATCC BAA-2340 = format: cell-based, Escherichia coli
[6] = tested on: Escherichia coli ATCC 8739; format: cell-based; conditions: ATCC 8739
Procedure: as §1

[7] = tested on: Acinetobacter baumannii ATCC BAA-747; format: cell-based; conditions: ATCC BAA-747
Procedure: as §1

E. coli NCTC 13846 = format: cell-based, Escherichia coli
Procedure: as §1

Row | Substance | MBC, E. faecalis (NCTC 12697) [1] [µM] | MIC, E. faecalis (NCTC 12697) [1] [µM] | HC10 (horse red blood cells) [µM] | MBC, P. aeruginosa (ATCC 9027) [2] | MIC, P. aeruginosa (ATCC 9027) [2] | MBC, K. pneumoniae (ATCC BAA-2342) [3] [µM] | MIC, K. pneumoniae (ATCC BAA-2342) [3] [µM] | MBC, S. aureus (ATCC 6538) [4] [µM] | MIC, S. aureus (ATCC 6538) [4] [µM] | MBC, K. pneumoniae (ATCC 43816) [5] [µM] | MIC, K. pneumoniae (ATCC 43816) [5] [µM] | GM MIC Gram-Positive (Gram-positive bacteria) [µM] | MBC, MRSA (NCTC 12493) (MRSA NCTC 12493) [µM] | MIC, MRSA (NCTC 12493) (MRSA NCTC 12493) [µM] | MBC, E. coli (ATCC BAA-2340) (E. coli ATCC BAA-2340) [µM] | MIC, E. coli (ATCC BAA-2340) (E. coli ATCC BAA-2340) [µM] | MBC, E. coli (ATCC 8739) [6] [µM] | MIC, E. coli (ATCC 8739) [6] [µM] | MBC, A. baumannii (ATCC BAA-747) [7] [µM] | MIC, A. baumannii (ATCC BAA-747) [7] [µM] | further results
1 | GLLSVLGSLKKIVPHVVPLIAKKL-NH2 [Caerin 1.1-LC 11K.22K] | 64 | 64 | 10.3 | 8 µM | 4 µM | 4 | 4 | 16 | 4 | 16 | 8 | 3.17 | 8 | 4 | 2 | 2 | 2 | 1 | 16 | 4 | MIC, Ca^2+ (E. coli (ATCC-BAA 2340)): 32 µM; MIC, Control (E. coli (ATCC-BAA 2340)): 4 µM; MIC, FBS (E. coli (ATCC-BAA 2340)): 16 µM; MIC, Fe^3+ (E. coli (ATCC-BAA 2340)): 8 µM; MIC, K^+ (E. coli (ATCC-BAA 2340)): 8 µM; MIC, Mg^2+ (E. coli (ATCC-BAA 2340)): 16 µM; MIC, NH4^+ (E. coli (ATCC-BAA 2340)): 8 µM; MIC, Na^+ (E. coli (ATCC-BAA 2340)): 8 µM; MBC, E. coli (NCTC 13846) (E. coli NCTC 13846): 8 µM; MIC, E. coli (NCTC 13846) (E. coli NCTC 13846): 4 µM
2 | GLLSVLGSLKKWVPHVVPLIAKKL-NH2 [Caerin 1.1-LC 11K.12K.12W] | 32 | 32 | 8.5 | 4 µM | 2 µM | 8 | 8 | 2 | 1 | 4 | 2 | 2 | 16 | 1 | 4 | 2 | 2 | 2 | 4 | 4 | MIC, Ca^2+ (E. coli (ATCC-BAA 2340)): 32 µM; MIC, Control (E. coli (ATCC-BAA 2340)): 4 µM; MIC, FBS (E. coli (ATCC-BAA 2340)): 8 µM; MIC, Fe^3+ (E. coli (ATCC-BAA 2340)): 4 µM; MIC, K^+ (E. coli (ATCC-BAA 2340)): 4 µM; MIC, Mg^2+ (E. coli (ATCC-BAA 2340)): 8 µM; MIC, NH4^+ (E. coli (ATCC-BAA 2340)): 4 µM; MIC, Na^+ (E. coli (ATCC-BAA 2340)): 4 µM; MBC, E. coli (NCTC 13846) (E. coli NCTC 13846): 4 µM; MIC, E. coli (NCTC 13846) (E. coli NCTC 13846): 2 µM
3 | GLLSVLGSLKLIVPHIIPLIAEKL-NH2 [Caerin 1.1-LC PHIIP] | >128 | >128 | 2.4 | 64 µM | 32 µM | 16 | 8 | 8 | 4 | 16 | 16 | 8 | 4 | 4 | 8 | 4 | 8 | 4 | 8 | 8 | MBC, E. coli (NCTC 13846) (E. coli NCTC 13846): 8 µM; MIC, E. coli (NCTC 13846) (E. coli NCTC 13846): 4 µM
4 | GLLSVLGSLKLIVPKVVPLIAEKL-NH2 [Caerin 1.1-LC PKVVP] | >128 | >128 | 25.8 | 32 µM | 8 µM | 32 | 8 | 32 | 16 | 32 | 16 | 12.14 | 8 | 8 | 4 | 2 | 8 | 4 | 32 | 32 | MBC, E. coli (NCTC 13846) (E. coli NCTC 13846): 4 µM; MIC, E. coli (NCTC 13846) (E. coli NCTC 13846): 2 µM
5 | GLLSVLGSLKLIVPRVVPLIAEKL-NH2 [Caerin 1.1-LC PRVVP] | >128 | >128 | 25.8 | 8/8 µM | 8/8 µM | 32 | 8 | 16 | 8 | 16 | 8 | 5.94 | 8 | 4 | 4 | 2 | 8 | 2 | 32 | 32 | MBC, E. coli (NCTC 13846) (E. coli NCTC 13846): 16 µM; MIC, E. coli (NCTC 13846) (E. coli NCTC 13846): 4 µM
